Test results published in patent publication US4064252A, “Substituted N-(carboxymethyl)-3-aminopropan-2-ol derivatives” (Nippon Shinyaku Co., Ltd., priority 1975, dated 1977).
Like-named read-outs stand apart in the source and are kept apart here.

Columns and labels:
serum triglyceride = experiment: Blood lipid lowering in 8 week-old male rats having normal serum lipid content: serum triglyceride; type: in vivo, rat; details: 3.5 days, vs non-treated control; for inhibition in vivo at 10 mg/kg/day / inhibition in vivo at 20 mg/kg/day / inhibition in vivo at 100 mg/kg/day: Rattus norvegicus, po, 84 h, read-out: % decrease of serum triglyceride; for inhibition in vivo at 10 mg/kg/day: 10 mg/kg/day oral
Procedure: (§1) 1. Blood lipid lowering activities in 8 week-old male rats having normal serum lipid content.
(§2) The values shown in Table 1 indicate the concentration changes of serum cholesterol and serum triglycride after the treatment with the shown various doses/day for 3.5 days. The mentioned compounds were orally administered to rat's groups consisting of 10 animals through a stomach tube twice a day. Blood was usually withdrawn 4 hours after the last administration. Serum cholesterol concentration was determined by the method of Levine and Zak, and triglyceride by the method of Kassler and Laderer by means of autoanalyzer. In all examples shown in Table 1, % decrease of treated groups are then to the non-treated reference group (control group), where the value of control group is represented as 100%.
(§3) The values in Table 5 indicate the concentration changes of serum cholesterol and the triglyceride after the treatment with the shown various doses per day for 3.5 days. These compounds were orally administered to rat groups consisting of 10 animals through a stomach tube twice a day. Blood was usually withdrawn 4 hours after the last administration. Serum cholesterol concentration was determined by the method of Levine and Zak, and serum triglyceride by the method of Kessler and Lederer by means of autoanalyzer. In all examples shown in Table 1, % decrease of the treated groups are to the non-treated control group where the value of control group is represented as 100%. […] The following examples are given to illustrate the representative embodiment of this invention, but this invention is not limited to these examples.

serum cholesterol = experiment: Blood lipid lowering in 8 week-old male rats having normal serum lipid content: serum cholesterol; type: in vivo; details: Rattus norvegicus, po, 84 h, 3.5 days, vs non-treated control, read-out: % decrease of serum cholesterol; for inhibition in vivo at 10 mg/kg/day: 10 mg/kg/day oral; for inhibition in vivo at 20 mg/kg/day: 20 mg/kg/day oral; for inhibition in vivo at 100 mg/kg/day: 100 mg/kg/day oral
Procedure: as §1, §2, §3

blood triglyceride = experiment: Blood triglyceride lowering in carbohydrate (fructose) induced hypertriglyceridemia of fructose loaded 9 week-old male rats; type: in vivo, rat; details: 3 days, vs fructose loaded control
Procedure: 2. Blood triglyceride lowering activities in the carbohydrate induced hypertriglyceridemia of fructose loaded 9 week-old rats.
Compounds shown in Table 2 were orally administered to the rat groups consisting of 10 animals for 3 days. Drinking of 10% fructose solution continued for 48 hours prior to sacrifice.
Fasting for 18 hours after the last administration, blood was withdrawn. In all examples shown in Table 2, % inhibitions of the treated groups are to the fructose loaded control group. The changed value of triglyoride content before and after the fructose load in the control group is represented as 100%.

blood cholesterol = experiment: Blood cholesterol lowering in thiouracil induced hypercholesterolemia of thiouracil loaded 9 week-old male rats; type: in vivo, rat; details: 4 days, vs thiouracil loaded control
Procedure: 3. Blood cholesterol lowering activities in the thiouracil induced hypercholesterolemia of thiouracil loaded 9 week-old male rats.
The compounds illustrated in Table 3 were orally administered for 4 days from the 4th day to rats given 0.1% thiouracil solution for 3 days as the pretreatment. Fasting for 18 hours after the last administration, blood was withdrawn. In all examples shown in Table 3, % inhibition of treated groups are to the thiouracil loaded control group, in which the changed value of cholesterol before and after the thiouracil load is represented as 100%.

In the case of O=C(O)CN(CC(O)COc1ccc(Cl)cc1)c1ccccc1 (stereo not shown) [Compound 2], the inhibition in vivo at 10 mg/kg/day (serum triglyceride; Table 1) is reported as 53.6%, the “% decrease of serum triglyceride” value (serum triglyceride; Table 1, 20 mg/kg/day oral, 20 mg/kg/day) is reported as 73.2% and the “% decrease of serum triglyceride” value (serum triglyceride; Table 1, 100 mg/kg/day oral, 100 mg/kg/day) is reported as 72.0%. For the same molecule, the inhibition in vivo at 10 mg/kg/day (serum cholesterol; Table 1) was 15.5%, the inhibition in vivo at 20 mg/kg/day (serum cholesterol; Table 1) was 28.8% and the inhibition in vivo at 100 mg/kg/day (serum cholesterol; Table 1) was 33.5%.

Molecule COC(=O)CN(CC(O)COc1ccc(Cl)cc1)c1ccccc1 (stereo not shown) [Compound 4] has an inhibition in vivo at 10 mg/kg/day (serum triglyceride; Table 1) of 36.5%, an inhibition in vivo at 20 mg/kg/day (serum triglyceride; Table 1, 20 mg/kg/day oral) of 54.4% and an inhibition in vivo at 100 mg/kg/day (serum triglyceride; Table 1, 100 mg/kg/day oral) of 59%. The inhibition in vivo at 10 mg/kg/day (serum cholesterol; Table 1) was 22.9%, the inhibition in vivo at 20 mg/kg/day (serum cholesterol; Table 1) was 23.4% and the inhibition in vivo at 100 mg/kg/day (serum cholesterol; Table 1) was 39.1%. For the same molecule, the “inhibition ratio (hypotriglyceridemic effect)” value (blood triglyceride; 10 mg/kg/day oral) was 46.5%, the “inhibition ratio (hypotriglyceridemic effect)” value (blood triglyceride; 30 mg/kg/day oral) was 69.9% and the “inhibition ratio (hypotriglyceridemic effect)” value (blood triglyceride; 100 mg/kg/day oral) was 93.0%. The “inhibition ratio (hypocholesterolemic effect)” value (blood cholesterol; 10 mg/kg/day oral) was 51.9%, the “inhibition ratio (hypocholesterolemic effect)” value (blood cholesterol; 30 mg/kg/day oral) was 57.9% and the “inhibition ratio (hypocholesterolemic effect)” value (blood cholesterol; 100 mg/kg/day oral) was 85.5%.

CCOC(=O)CN(CC(O)COc1ccc(Cl)cc1)c1ccccc1 (stereo not shown) [Compound 5] was tested, and the “inhibition ratio (hypocholesterolemic effect)” value (blood cholesterol; 10 mg/kg/day oral) was 49.9%, the “inhibition ratio (hypocholesterolemic effect)” value (blood cholesterol; 30 mg/kg/day oral) was 69.2% and the “inhibition ratio (hypocholesterolemic effect)” value (blood cholesterol; 100 mg/kg/day oral) was 100.7%.

CCCOC(=O)CN(CC(O)COc1ccc(Cl)cc1)c1ccccc1 (stereo not shown) [Compound 6] showed an inhibition in vivo at 20 mg/kg/day (serum triglyceride; Table 1, 20 mg/kg/day oral) of 49.6%, an inhibition in vivo at 100 mg/kg/day (serum triglyceride; Table 1, 100 mg/kg/day oral) of 72.4% and an inhibition in vivo at 20 mg/kg/day (serum cholesterol; Table 1) of 34.7%. The inhibition in vivo at 100 mg/kg/day (serum cholesterol; Table 1) was 41.2%, the “inhibition ratio (hypotriglyceridemic effect)” value (blood triglyceride; 10 mg/kg/day oral) was 55.9% and the “inhibition ratio (hypotriglyceridemic effect)” value (blood triglyceride; 30 mg/kg/day oral) was 67.6%. For the same molecule, the “inhibition ratio (hypotriglyceridemic effect)” value (blood triglyceride; 100 mg/kg/day oral) was 85.7%, the “inhibition ratio (hypocholesterolemic effect)” value (blood cholesterol; 10 mg/kg/day oral) was 58.4% and the “inhibition ratio (hypocholesterolemic effect)” value (blood cholesterol; 30 mg/kg/day oral) was 70.1%. For the same molecule, the “inhibition ratio (hypocholesterolemic effect)” value (blood cholesterol; 100 mg/kg/day oral) was 94.9%.

For CCCCOC(=O)CN(CC(O)COc1ccc(Cl)cc1)c1ccccc1 (stereo not shown) [Compound 10], the “inhibition ratio (hypotriglyceridemic effect)” value (blood triglyceride; 10 mg/kg/day oral) was 48.5%, the “inhibition ratio (hypotriglyceridemic effect)” value (blood triglyceride; 30 mg/kg/day oral) was 61.5% and the “inhibition ratio (hypotriglyceridemic effect)” value (blood triglyceride; 100 mg/kg/day oral) was 63.3%. For the same molecule, the “inhibition ratio (hypocholesterolemic effect)” value (blood cholesterol; 10 mg/kg/day oral) was 52.6%, the “inhibition ratio (hypocholesterolemic effect)” value (blood cholesterol; 30 mg/kg/day oral) was 87.4% and the “inhibition ratio (hypocholesterolemic effect)” value (blood cholesterol; 100 mg/kg/day oral) was 94.9%.

In the case of COC(=O)CN(CC(O)COc1ccccc1Cl)c1ccccc1 (stereo not shown) [Compound 11], the inhibition in vivo at 20 mg/kg/day (serum triglyceride; Table 1, 20 mg/kg/day oral) is reported as 65.4%, the inhibition in vivo at 100 mg/kg/day (serum triglyceride; Table 1, 100 mg/kg/day oral) is reported as 66% and the inhibition in vivo at 20 mg/kg/day (serum cholesterol; Table 1) is reported as 21.5%. It also gave an inhibition in vivo at 100 mg/kg/day (serum cholesterol; Table 1) of 30.3%.

In the case of COC(=O)CN(CC(O)COc1ccc(C(C)(C)C)cc1)c1ccccc1 (stereo not shown) [Compound 18], the inhibition in vivo at 20 mg/kg/day (serum triglyceride; Table 1, 20 mg/kg/day oral) is reported as 54.5%, the inhibition in vivo at 100 mg/kg/day (serum triglyceride; Table 1, 100 mg/kg/day oral) is reported as 59.3% and the inhibition in vivo at 20 mg/kg/day (serum cholesterol; Table 1) is reported as 12.4%. It also gave an inhibition in vivo at 100 mg/kg/day (serum cholesterol; Table 1) of 14.9%.

For NC(=O)CN(CC(O)COc1ccc(Cl)cc1)c1ccccc1 (stereo not shown) [Compound 32], the inhibition in vivo at 100 mg/kg/day (serum triglyceride; Table 1, 100 mg/kg/day oral) was 56.6% and the inhibition in vivo at 100 mg/kg/day (serum cholesterol; Table 1) was 29.6%.

Work on CCN(CC)C(=O)CN(CC(O)COc1ccc(Cl)cc1)c1ccccc1 (stereo not shown) [Compound 35] yielded an inhibition in vivo at 100 mg/kg/day (serum triglyceride; Table 1, 100 mg/kg/day oral) of 52.7% and an inhibition in vivo at 100 mg/kg/day (serum cholesterol; Table 1) of 19.8%.

Work on O=C(CN(CC(O)COc1ccc(Cl)cc1)c1ccccc1)NCc1ccccc1 (stereo not shown) [Compound 41] yielded an inhibition in vivo at 100 mg/kg/day (serum triglyceride; Table 1, 100 mg/kg/day oral) of 53.2% and an inhibition in vivo at 100 mg/kg/day (serum cholesterol; Table 1) of 12.3%.

Work on COC(=O)CN(CC(COc1ccc(Cl)cc1)OC(C)=O)c1ccccc1 (stereo not shown) [Compound 50, 2-acetoxy-1-(p-chlorophenoxy)-3-(N-carbomethoxymethyl-N-phenylamino) propane] yielded an inhibition in vivo at 20 mg/kg/day (serum triglyceride; Table 5, 20 mg/kg/day oral) of 65.4%, an inhibition in vivo at 100 mg/kg/day (serum triglyceride; Table 5, 100 mg/kg/day oral) of 66% and an inhibition in vivo at 20 mg/kg/day (serum cholesterol; Table 5) of 21.5%. It also gave an inhibition in vivo at 100 mg/kg/day (serum cholesterol; Table 5) of 30.3%.

For CCOC(=O)CN(CC(COc1ccc(Cl)cc1)OC(=O)c1cccnc1)c1ccccc1 (stereo not shown) [Compound 57], the inhibition in vivo at 20 mg/kg/day (serum triglyceride; Table 5, 20 mg/kg/day oral) was 54.5%, the inhibition in vivo at 100 mg/kg/day (serum triglyceride; Table 5, 100 mg/kg/day oral) was 59.3% and the inhibition in vivo at 20 mg/kg/day (serum cholesterol; Table 5) was 12.4%. The inhibition in vivo at 100 mg/kg/day (serum cholesterol; Table 5) was 14.9%.

For N[C@@H](Cc1cc(I)c(Oc2cc(I)c(O)c(I)c2)c(I)c1)C(=O)O [L-thyroxine, reference compound], the “inhibition ratio (hypocholesterolemic effect)” value (blood cholesterol; 3 mg/kg/day oral) was 54.8%.

CCOC(=O)C(C)(C)Oc1ccc(Cl)cc1 [clofibrate, reference compound] showed an inhibition in vivo at 10 mg/kg/day (serum triglyceride; Table 1) of 6.2%, an inhibition in vivo at 20 mg/kg/day (serum triglyceride; Table 1, 20 mg/kg/day oral) of 36.3% and an inhibition in vivo at 100 mg/kg/day (serum triglyceride; Table 1, 100 mg/kg/day oral) of 51.7%. For the same molecule, the inhibition in vivo at 20 mg/kg/day (serum triglyceride; Table 5, 20 mg/kg/day oral) was 36.3%, the inhibition in vivo at 100 mg/kg/day (serum triglyceride; Table 5, 100 mg/kg/day oral) was 51.7% and the inhibition in vivo at 10 mg/kg/day (serum cholesterol; Table 1) was 5.8%. The inhibition in vivo at 20 mg/kg/day (serum cholesterol; Table 1) was 12.6%, the inhibition in vivo at 100 mg/kg/day (serum cholesterol; Table 1) was 37% and the inhibition in vivo at 20 mg/kg/day (serum cholesterol; Table 5) was 12.6%. The inhibition in vivo at 100 mg/kg/day (serum cholesterol; Table 5) was 37%, the “inhibition ratio (hypotriglyceridemic effect)” value (blood triglyceride; 10 mg/kg/day oral) was -16.6% and the “inhibition ratio (hypotriglyceridemic effect)” value (blood triglyceride; 30 mg/kg/day oral) was -2.3%. For the same molecule, the “inhibition ratio (hypotriglyceridemic effect)” value (blood triglyceride; 100 mg/kg/day oral) was 23.2%.
